Source: the supplement of paper PMC10307832

Experiments:
Assay in all cases: relative viability (nuclei count vs DMSO), 5 days (fraction); higher = more cells survive
Ponatinib + Luminespib = compound: Cc1ccc(C(=O)Nc2ccc(CN3CCN(C)CC3)c(C(F)(F)F)c2)cc1C#Cc1cnc2cccnn12 [Ponatinib] + CCNC(=O)c1noc(-c2cc(C(C)C)c(O)cc2O)c1-c1ccc(CN2CCOCC2)cc1 [Luminespib] (partner 0.01 µM)
In short: (§1)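 Values are medians from duplicate plates. Each reflects relative viability, defined as the nuclei count of treated wells over that of vehicle wells. Lung cancer cell lines in 1536-well plates were pin-tool dosed one day after seeding with one drug alone or with a fixed anchor-drug dose plus five library-drug doses (not always all listed) in √10 steps, then fixed, stained and imaged at 4× after 5 days.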

Ponatinib + OSI-027 = compound: Cc1ccc(C(=O)Nc2ccc(CN3CCN(C)CC3)c(C(F)(F)F)c2)cc1C#Cc1cnc2cccnn12 [Ponatinib] + COc1cccc2cc(-c3nc([C@H]4CC[C@H](C(=O)O)CC4)n4ncnc(N)c34)[nH]c12 [OSI-027] (partner 0.5 µM)
In short: as §1

Ponatinib + Tozasertib = compound: Cc1ccc(C(=O)Nc2ccc(CN3CCN(C)CC3)c(C(F)(F)F)c2)cc1C#Cc1cnc2cccnn12 [Ponatinib] + Cc1cc(Nc2cc(N3CCN(C)CC3)nc(Sc3ccc(NC(=O)C4CC4)cc3)n2)n[nH]1 [Tozasertib] (partner 0.1 µM)
In short: as §1

Ponatinib + Dasatinib = compound: Cc1ccc(C(=O)Nc2ccc(CN3CCN(C)CC3)c(C(F)(F)F)c2)cc1C#Cc1cnc2cccnn12 [Ponatinib] + Cc1nc(Nc2ncc(C(=O)Nc3c(C)cccc3Cl)s2)cc(N2CCN(CCO)CC2)n1 [Dasatinib] (partner 0.075 µM)
In short: as §1

## UMC-11
Ponatinib + Luminespib; first compound 0.002 µM
  relative viability: 1.07
Ponatinib + Luminespib; first compound 0.006325 µM
  relative viability: 1.16
Ponatinib + Luminespib; first compound 0.06325 µM
  relative viability: 1.04
Ponatinib + Luminespib; first compound 0.2 µM
  relative viability: 0.979
Ponatinib + OSI-027; first compound 0.002 µM
  relative viability: 0.47
Ponatinib + OSI-027; first compound 0.006325 µM
  relative viability: 0.49
Ponatinib + OSI-027; first compound 0.06325 µM
  relative viability: 0.555
Ponatinib + OSI-027; first compound 0.2 µM
  relative viability: 0.525
Ponatinib + Tozasertib; first compound 0.002 µM
  relative viability: 0.193
Ponatinib + Tozasertib; first compound 0.006325 µM
  relative viability: 0.223
Ponatinib + Tozasertib; first compound 0.06325 µM
  relative viability: 0.209
Ponatinib + Tozasertib; first compound 0.2 µM
  relative viability: 0.217
Ponatinib + Dasatinib; first compound 0.002 µM
  relative viability: 0.465
Ponatinib + Dasatinib; first compound 0.006325 µM
  relative viability: 0.451
Ponatinib + Dasatinib; first compound 0.06325 µM
  relative viability: 0.51
Ponatinib + Dasatinib; first compound 0.2 µM
  relative viability: 0.465
